Biological target: T1, NT5DC2_C507 (Homo sapiens, UniProt Q9H857)
T1 construct: endogenous in cells; host or cells: 22Rv1
T1 sequence (Q9H857 1-520): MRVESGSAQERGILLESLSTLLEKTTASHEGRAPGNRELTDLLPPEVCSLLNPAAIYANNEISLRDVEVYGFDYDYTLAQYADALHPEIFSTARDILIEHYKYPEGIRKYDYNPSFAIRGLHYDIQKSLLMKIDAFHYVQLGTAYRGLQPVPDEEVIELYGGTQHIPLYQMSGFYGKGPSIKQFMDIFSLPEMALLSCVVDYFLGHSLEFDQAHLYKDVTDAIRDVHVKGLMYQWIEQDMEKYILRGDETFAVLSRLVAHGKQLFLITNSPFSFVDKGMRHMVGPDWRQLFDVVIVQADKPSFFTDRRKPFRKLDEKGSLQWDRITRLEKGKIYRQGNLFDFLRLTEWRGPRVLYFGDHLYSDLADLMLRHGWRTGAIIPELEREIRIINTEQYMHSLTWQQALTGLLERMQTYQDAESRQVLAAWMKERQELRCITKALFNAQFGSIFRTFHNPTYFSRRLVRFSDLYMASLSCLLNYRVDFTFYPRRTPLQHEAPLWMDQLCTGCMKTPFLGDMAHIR
Experiment: IA-DTB cysteine engagement
Assay type: binding
Conditions: 22Rv1 cells, 20 μM probe, 1 h, relative to DMSO
Method in brief: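 Cells were treated in situ with electrophilic probes, then lysed, and the lysates (2 mg/mL protein) were labeled with IA-DTB for 1 h at ambient temperature. After reduction, alkylation and trypsin digestion, labeled peptides were streptavidin-enriched, TMT-labeled and fractionated. Engagement ratios are probe vs DMSO reporter intensities, averaged across replicates.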

Compound | % engagement NT5DC2_C507 [%]
C=CC(=O)N1C[C@@H](c2ccc(Br)cc2)[C@H]1C(=O)Nc1cccc2cccnc12 [MY-1A, (2S,3R)-1-acryloyl-3-(4-bromophenyl)-N-(quinolin-8-yl)azetidine-2-carboxamide] | 83.75
C=CC(=O)N1C[C@H](c2ccc(Br)cc2)[C@@H]1C(=O)Nc1cccc2cccnc12 [MY-1B, (2R,3S)-1-acryloyl-3-(4-bromophenyl)-N-(quinolin-8-yl)azetidine-2-carboxamide] | 67.25
C=CC(=O)N1C[C@H](c2ccc(Br)cc2)[C@H]1C(=O)Nc1cccc2cccnc12 [MY-3A, (2S,3S)-1-acryloyl-3-(4-bromophenyl)-N-(quinolin-8-yl)azetidine-2-carboxamide] | 50.5
C=CC(=O)N1C[C@H](c2ccc(Br)cc2)[C@H]1C(=O)Nc1cccc2cccnc12 [MY-3B, (2S,3S)-1-acryloyl-3-(4-bromophenyl)-N-(quinolin-8-yl)azetidine-2-carboxamide] | 57.5

Reference: patent US20250034216A1, “STEREOSELECTIVE COVALENT LIGANDS FOR ONCOGENIC AND IMMUNOLOGICAL PROTEINS” (The Scripps Research Institute, priority 2021, published 2025)
